Patent US11542273B2, “Amide compound having bet proteolysis-inducing action and medicinal application thereof” (MITSUBISHI TANABE PHARMA CORPORATION, priority 2018, dated 2023)
pIC50: −log10 of the molar value.

How the values were obtained:
BRD4 protein = BRD4 protein (Homo sapiens (Human), UniProt O60885); assay: BRD4 protein degradation inducing action in cancer cells (immunofluorescence, Operetta); assay type: cell-based; conditions: LNCaP cells, 6 hr treatment, fluorescence intensity
Procedure, shortened: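 DC50 = compound concentration reducing BRD4 immunofluorescence to 50% of untreated cells, interpolated between the two flanking concentrations. Treatment: LNCaP cells, 6 hr, 10% FBS/RPMI1640, 37° C. Cells were then fixed, permeabilized, stained with anti-BRD4 and Alexa Fluor 488 or 546 secondaries, and imaged.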

[1] = system: human prostate cancer LNCaP cells; assay: Cytotoxic action on cancer cells (WST-8, 96 hr); assay type: cell-based; conditions: Homo sapiens, LNCaP, 96 h, read-out: LNCaP cytotoxic activity: IC50
Procedure, shortened: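 IC50 from linear interpolation of the two concentrations flanking 50% survival; viability by WST-8 relative to untreated wells. Cells grown in 10% FBS/RPMI1640, 37° C, 5% CO2, compound added after overnight attachment.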

Row | Compound | DC50 (BRD4 protein) | pIC50 [1]
1 | COC(=O)C[C@@H]1N=C(c2ccc(-c3ccc(C(=O)N[C@H](C(=O)N4C[C@H](O)C[C@H]4C(=O)NCc4ccc(-c5scnc5C)cc4)C(C)(C)C)c(Cl)c3)cc2)c2c(sc(C)c2C)-n2c(C)nnc21 [Example 190, methyl {(6S)-4-[3′-chloro-4′-({(2S)-1-[(2S,4R)-4-hydroxy-2-({[4-(4-methyl-1,3-thiazol-5-yl)phenyl]methyl}carbamoyl)pyrrolidin-1-yl]-3,3-dimethyl-1-oxobutan-2-yl}carbamoyl)[1,1′-biphenyl]-4-yl]-2,3,9-trimethyl-6H-thieno[3,2-f][1,2,4]triazolo[4,3-a][1,4]diazepin-6-yl}acetate] | 0.17 nM | 9.89
2 | Cc1ncsc1-c1ccc([C@H](C)NC(=O)[C@@H]2C[C@@H](O)CN2C(=O)[C@@H](NC(=O)CCCCc2ccc(C3=N[C@@H](C)c4nnc(C)n4-c4sc(C)c(C)c43)cc2)C(C)(C)C)cc1 [Example 192, (2S,4R)-1-{(2S)-3,3-dimethyl-2-[(5-{4-[(6S)-2,3,6,9-tetramethyl-6H-thieno[3,2-f][1,2,4]triazolo[4,3-a] [1,4]diazepin-4-yl]phenyl}pentanoyl)amino]butanoyl}-4-hydroxy-N-{(1S)-1-[4-(4-methyl-1,3-thiazol-5-yl)phenyl]ethyl}pyrrolidine-2-carboxamide] | 0.77 nM | 9.34
3 | Cc1ncsc1-c1ccc([C@H](C)NC(=O)[C@@H]2C[C@@H](O)CN2C(=O)[C@@H](NC(=O)CCCCCc2ccc(C3=N[C@@H](C)c4nnc(C)n4-c4sc(C)c(C)c43)cc2)C(C)(C)C)cc1 [Example 193, (2S,4R)-1-{(2S)-3,3-dimethyl-2-[(6-{4-[(6S)-2,3,6,9-tetramethyl-6H-thieno[3,2-f][1,2,4]triazolo[4,3-a] [1,4]diazepin-4-yl]phenyl}hexanoyl)amino]butanoyl}-4-hydroxy-N-{(1S)-1-[4-(4-methyl-1,3-thiazol-5-yl)phenyl]ethyl}pyrrolidine-2-carboxamide] | 0.62 nM | 9.52
4 | Cc1ncsc1-c1ccc([C@H](C)NC(=O)[C@@H]2C[C@@H](O)CN2C(=O)[C@@H](NC(=O)CCCCCCc2ccc(C3=N[C@@H](C)c4nnc(C)n4-c4sc(C)c(C)c43)cc2)C(C)(C)C)cc1 [Example 194, (2S,4R)-1-{(2S)-3,3-dimethyl-2-[(7-{4-[(6S)-2,3,6,9-tetramethyl-6H-thieno[3,2-f][1,2,4]triazolo[4,3-a] [1,4]diazepin-4-yl]phenyl}heptanoyl)amino]butanoyl}-4-hydroxy-N-{(1S)-1-[4-(4-methyl-1,3-thiazol-5-yl)phenyl]ethyl}pyrrolidine-2-carboxamide] | 0.23 nM | 9.77
5 | Cc1ncsc1-c1ccc([C@H](C)NC(=O)[C@@H]2C[C@@H](O)CN2C(=O)[C@@H](NC(=O)C#Cc2ccc(C3=N[C@@H](C)c4nnc(C)n4-c4sc(C)c(C)c43)cc2)C(C)(C)C)cc1 [Example 198, (2S,4R)-1-{(2S)-3,3-dimethyl-2-[(3-{4-[(6S)-2,3,6,9-tetramethyl-6H-thieno[3,2-f][1,2,4]triazolo[4,3-a][1,4]diazepin-4-yl]phenyl}prop-2-ynoyl)amino]butanoyl}-4-hydroxy-N-{(1S)-1-[4-(4-methyl-1,3-thiazol-5-yl)phenyl]ethyl}pyrrolidine-2-carboxamide] | 0.058 nM | 10.21
6 | Cc1ncsc1-c1ccc([C@H](C)NC(=O)[C@@H]2C[C@@H](O)CN2C(=O)[C@@H](NC(=O)C2(OCCCc3ccc(C4=N[C@@H](C)c5nnc(C)n5-c5sc(C)c(C)c54)cc3)CC2)C(C)(C)C)cc1 [Example 199, (2S,4R)-1-[(2S)-3,3-dimethyl-2-{[1-(3-{4-[(6S)-2,3,6,9-tetramethyl-6H-thieno[3,2-f][1,2,4]triazolo[4,3-a] [1,4]diazepin-4-yl]phenyl}propoxy)cyclopropane-1-carbonyl]amino}butanoyl]-4-hydroxy-N-{(1S)-1-[4-(4-methyl-1,3-thiazol-5-yl)phenyl]ethyl}pyrrolidine-2-carboxamide] | 0.55 nM | 9.19
7 | Cc1ncsc1-c1ccc([C@H](C)NC(=O)[C@@H]2C[C@@H](O)CN2C(=O)[C@@H](NC(=O)c2ccc(-c3ccc(C4=N[C@@H](C)c5nnc(C)n5-c5sc6c(c54)CCC6)cc3)cc2)C(C)(C)C)cc1 [Example 200, (2S,4R)-1-[(2S)-2-({4′-[(45)-1,4-dimethyl-8,9-dihydro-4H,7H-cyclopenta[4,5]thieno[3,2-f][1,2,4]triazolo[4,3-a] [1,4]diazepin-6-yl][1,1′-biphenyl]-4-carbonyl}amino)-3,3-dimethylbutanoyl]-4-hydroxy-N-{(1S)-1-[4-(4-methyl-1,3-thiazol-5-yl)phenyl]ethyl}pyrrolidine-2-carboxamide] | 0.66 nM | 9.42
8 | Cc1ncsc1-c1ccc([C@H](C)NC(=O)[C@@H]2C[C@@H](O)CN2C(=O)[C@@H](NC(=O)/C=C/c2ccc(C3=N[C@@H](C)c4nnc(C)n4-c4sc(C)c(C)c43)cc2)C(C)(C)C)cc1 [Example 201, (2S,4R)-1-[(2S)-3,3-dimethyl-2-{[(2E)-3-{4-[(6S)-2,3,6,9-tetramethyl-6H-thieno[3,2-f][1,2,4]triazolo[4,3-a] [1,4]diazepin-4-yl]phenyl}prop-2-enoyl]amino}butanoyl]-4-hydroxy-N-{(1S)-1-[4-(4-methyl-1,3-thiazol-5-yl)phenyl]ethyl}pyrrolidine-2-carboxamide] | 0.37 nM | 9.47
9 | Cc1ncsc1-c1ccc([C@H](C)NC(=O)[C@@H]2C[C@@H](O)CN2C(=O)[C@@H](NC(=O)c2cc(F)c(-c3ccc(C4=N[C@@H](C)c5nnc(C)n5-c5sc(C)c(C)c54)cc3)cc2Cl)C(C)(C)C)cc1 [Example 204, (2S,4R)-1-[(2S)-2-({5-chloro-2-fluoro-4′-[(6S)-2,3,6,9-tetramethyl-6H-thieno[3,2-f][1,2,4]triazolo[4,3-a] [1,4]diazepin-4-yl][1,1′-biphenyl]-4-carbonyl}amino)-3,3-dimethylbutanoyl]-4-hydroxy-N-{(1S)-1-[4-(4-methyl-1,3-thiazol-5-yl)phenyl]ethyl}pyrrolidine-2-carboxamide] | 0.51 nM | 9.49
10 | CNC(=O)C[C@@H]1N=C(c2ccc(-c3ccc(C(=O)N[C@H](C(=O)N4C[C@H](O)C[C@H]4C(=O)N[C@@H](C)c4ccc(-c5scnc5C)cc4)C(C)(C)C)cc3F)cc2)c2c(sc(C)c2C)-n2c(C)nnc21 [Example 206, (2S,4R)-1-{(2S)-2-[(2-fluoro-4′-{(6S)-2,3,9-trimethyl-6-[2-(methylamino)-2-oxoethyl]-6H-thieno[3,2-f] [1,2,4]triazolo[4,3-a][1,4]diazepin-4-yl}[1,1′-biphenyl]-4-carbonyl)amino]-3,3-dimethylbutanoyl}-4-hydroxy-N-{(1S)-1-[4-(4-methyl-1,3-thiazol-5-yl)phenyl]ethyl}pyrrolidine-2-carboxamide] | 0.73 nM | 9.17
11 | Cc1ncsc1-c1ccc([C@H](C)NC(=O)[C@@H]2C[C@@H](O)CN2C(=O)[C@@H](NC(=O)c2ccc(-c3ccc(C4=N[C@@H](CC(=O)N(C)C)c5nnc(C)n5-c5sc(C)c(C)c54)cc3)c(F)c2)C(C)(C)C)cc1 [Example 207, (2S,4R)-1-{(2S)-2-[(4′-{(6S)-6-[2-(dimethylamino)-2-oxoethyl]-2,3,9-trimethyl-6H-thieno [3,2-f][1,2,4]triazolo [4,3-a] [1,4]diazepin-4-yl}-2-fluoro [1,1′-biphenyl]-4-carbonyl)amino]-3,3-dimethylbutanoyl}-4-hydroxy-N-{(1S)-1-[4-(4-methyl-1,3-thiazol-5-yl)phenyl]ethyl}pyrrolidine-2-carboxamide] | 0.62 nM | 9.37
12 | COC(=O)C[C@@H]1N=C(c2ccc(-c3ccc(C(=O)N[C@H](C(=O)N4C[C@H](O)C[C@H]4C(=O)N[C@@H](C)c4ccc(-c5scnc5C)cc4)C(C)(C)C)cc3)cc2)c2c(sc(CO)c2C)-n2c(C)nnc21 [Example 209, methyl {(6S)-2-(hydroxymethyl)-4-[4′-({(2S)-1-[(2S,4R)-4-hydroxy-2-({(1S)-1-[4-(4-methyl-1,3-thiazol-5-yl)phenyl]ethyl}carbamoyl)pyrrolidin-1-yl]-3,3-dimethyl-1-oxobutan-2-yl}carbamoyl)[1,1′-biphenyl]-4-yl]-3,9-dimethyl-6H-thieno[3,2-f][1,2,4]triazolo[4,3-a][1,4]diazepin-6-yl}acetate] | 0.32 nM | 9.62
13 | COC(=O)C[C@@H]1N=C(c2ccc(-c3ccc(C(=O)N[C@H](C(=O)N4C[C@H](O)C[C@H]4C(=O)N[C@@H](C)c4ccc(-c5scnc5C)cc4)C(C)C)cc3)cc2)c2c(sc(C)c2C)-n2c(C)nnc21 [Example 210, methyl {(6S)-4-[4′-({(2S)-1-[(2S,4R)-4-hydroxy-2-({(1S)-1-[4-(4-methyl-1,3-thiazol-5-yl)phenyl]ethyl}carbamoyl)pyrrolidin-1-yl]-3-methyl-1-oxobutan-2-yl}carbamoyl)[1,1′-biphenyl]-4-yl]-2,3,9-trimethyl-6H-thieno[3,2-f][1,2,4]triazolo[4,3-a][1,4]diazepin-6-yl}acetate] | 0.26 nM | 9.54
14 | COC(=O)C[C@@H]1N=C(c2ccc(-c3ccc(C(=O)N[C@H](C(=O)N4C[C@H](O)C[C@H]4C(=O)N[C@@H](CO)c4ccc(-c5scnc5C)cc4)C(C)(C)C)cc3)cc2)c2c(sc(C)c2C)-n2c(C)nnc21 [Example 215, methyl {(6S)-4-[4′-({(2S)-1-[(2S,4R)-4-hydroxy-2-({(1R)-2-hydroxy-1-[4-(4-methyl-1,3-thiazol-5-yl)phenyl]ethyl}carbamoyl)pyrrolidin-1-yl]-3,3-dimethyl-1-oxobutan-2-yl}carbamoyl)[1,1′-biphenyl]-4-yl]-2,3,9-trimethyl-6H-thieno[3,2-f][1,2,4]triazolo[4,3-a][1,4]diazepin-6-yl}acetate] | 0.33 nM | 9.51
